Assay results taken from paper PMC4373884, “Crystal Structures of the Kinase Domain of the Sulfate-Activating Complex in Mycobacterium tuberculosis” (PLoS ONE, 2015).

Columns and labels:
[1] = target: T1, CysC (APS kinase domain of CysN) (Mycobacterium tuberculosis, UniProt P9WNM5)
T1 construct: gene cysNC

[2] = target: T1, CysC (APS kinase domain of CysN); remark: listed apart in the source

T1 sequence (P9WNM5 424-612): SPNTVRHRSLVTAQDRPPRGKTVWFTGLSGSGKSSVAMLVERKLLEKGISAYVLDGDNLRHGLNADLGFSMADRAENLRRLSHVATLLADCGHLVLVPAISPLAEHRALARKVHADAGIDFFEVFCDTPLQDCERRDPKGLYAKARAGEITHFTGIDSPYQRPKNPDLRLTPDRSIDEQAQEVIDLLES

SMILES | X-ray crystal structure [1] | ADP-Glo luminescence kinase assay [2]
Nc1ncnc2c1ncn2[C@@H]1O[C@H](COP(=O)(O)OP(=O)(O)O)[C@@H](O)[C@H]1O [ADP] | The electron density maps clearly show the presence of one molecule of ADP per subunit | –
Nc1ncnc2c1ncn2[C@@H]1O[C@H](COP(=O)(O)OP(=O)(O)NP(=O)(O)O)[C@@H](O)[C@H]1O [AMP-PNP] | The bound ligands AMP-PNP and APS are well defined in electron density | –
Nc1ncnc2c1ncn2[C@@H]1O[C@H](COP(=O)(O)OP(=O)(O)OP(=O)(O)O)[C@@H](O)[C@H]1O [ATP] | – | The CysC domain used in this study is catalytically active and shows APS kinase activity
